Data published in ChEMBL document CHEMBL3044672, “N9- and N7-(Chloromethyl Phenymethyl)Chloropurine Derivatives from , '-Dichloroxylenes: Synthesis and Anticancer Activity” (2005).

Tests used:
Type in all cases: functional
SK-OV-3 = assay: Cytotoxicity against Homo sapiens (human) SKOV3 cells after 48 hr by sulforhodamine B assay; conditions: SK-OV-3, 48 h
OVCAR-4 = assay: Cytotoxicity against Homo sapiens (human) OVCAR4 cells after 48 hr by sulforhodamine B assay; conditions: OVCAR-4, 48 h
UACC-62 = assay: Cytotoxicity against Homo sapiens (human) UACC62 cells after 48 hr by sulforhodamine B assay; conditions: UACC-62, 48 h
UACC-257 = assay: Cytotoxicity against Homo sapiens (human) UACC257 cells after 48 hr by sulforhodamine B assay; conditions: UACC-257, 48 h
LOX IMVI = assay: Cytotoxicity against Homo sapiens (human) LOXIMVI cells after 48 hr by sulforhodamine B assay
SNB-75 = assay: Cytotoxicity against Homo sapiens (human) SNB75 cells after 48 hr by sulforhodamine B assay; conditions: SNB-75, 48 h; for CC50: read-out: LC50 (the source's name)
Hs-578T = assay: Cytotoxicity against Homo sapiens (human) Hs 578T cells after 48 hr by sulforhodamine B assay
[1] = Cytotoxicity against Homo sapiens (human) NCI-ADR-RES cells after 48 hr by sulforhodamine B assay
MDA-MB-231 = assay: Cytotoxicity against Homo sapiens (human) MDA-MB-231 cells after 48 hr by sulforhodamine B assay; conditions: MDA-MB-231, 48 h
TK-10 = assay: Cytotoxicity against Homo sapiens (human) TK10 cells after 48 hr by sulforhodamine B assay; conditions: TK-10, 48 h; for CC50: read-out: LC50 (the source's name)
RXF 393 = assay: Cytotoxicity against Homo sapiens (human) RXF393 cells after 48 hr by sulforhodamine B assay; conditions: RXF 393, 48 h; for CC50: read-out: LC50 (the source's name)
SF-268 = assay: Cytotoxicity against Homo sapiens (human) SF268 cells after 48 hr by sulforhodamine B assay; conditions: SF-268, 48 h; for CC50: read-out: LC50 (the source's name)
KM12 = assay: Cytotoxicity against Homo sapiens (human) KM12 cells after 48 hr by sulforhodamine B assay; conditions: KM12, 48 h; for CC50: read-out: LC50 (the source's name)
HCT-15 = assay: Cytotoxicity against Homo sapiens (human) HCT15 cells after 48 hr by sulforhodamine B assay; conditions: HCT-15, 48 h; for CC50: read-out: LC50 (the source's name)
HCT-116 = assay: Cytotoxicity against Homo sapiens (human) HCT116 cells after 48 hr by sulforhodamine B assay; conditions: HCT-116, 48 h
HCC 2998 = assay: Cytotoxicity against Homo sapiens (human) HCC2998 cells after 48 hr by sulforhodamine B assay; conditions: HCC 2998, 48 h; for CC50: read-out: LC50 (the source's name)
COLO 205 = assay: Cytotoxicity against Homo sapiens (human) COLO205 cells after 48 hr by sulforhodamine B assay; conditions: COLO 205, 48 h; for CC50: read-out: LC50 (the source's name)
NCI-H522 = assay: Cytotoxicity against Homo sapiens (human) NCI-H522 cells after 48 hr by sulforhodamine B assay; conditions: NCI-H522, 48 h; for CC50: read-out: LC50 (the source's name)
NCI-H23 = assay: Cytotoxicity against Homo sapiens (human) NCI-H23 cells after 48 hr by sulforhodamine B assay; conditions: NCI-H23, 48 h; for CC50: read-out: LC50 (the source's name)
HOP-62 = assay: Cytotoxicity against Homo sapiens (human) HOP62 cells after 48 hr by sulforhodamine B assay; conditions: HOP-62, 48 h; for CC50: read-out: LC50 (the source's name)
A549 = assay: Cytotoxicity against Homo sapiens (human) A549 cells after 48 hr by sulforhodamine B assay; conditions: A549, 48 h; for CC50: read-out: LC50 (the source's name)
RPMI-8226 = assay: Cytotoxicity against Homo sapiens (human) RPMI8226 cells after 48 hr by sulforhodamine B assay; conditions: RPMI-8226, 48 h
MOLT-4 = assay: Cytotoxicity against Homo sapiens (human) MOLT4 cells after 48 hr by sulforhodamine B assay; conditions: MOLT-4, 48 h; for CC50: read-out: LC50 (the source's name)
K562 = assay: Cytotoxicity against Homo sapiens (human) K562 cells after 48 hr by sulforhodamine B assay; conditions: K562, 48 h; for CC50: read-out: LC50 (the source's name)
CCRF-CEM = assay: Cytotoxicity against Homo sapiens (human) CCRF-CEM cells after 48 hr by sulforhodamine B assay; conditions: for CC50: read-out: LC50 (the source's name)
MCF7 = assay: Cytotoxicity against Homo sapiens (human) MCF7 cells assessed as cell growth at 10^-4 M after 48 hr by Alamar blue assay; conditions: MCF7, 48 h, read-out: Activity
NCI-H460 = assay: Cytotoxicity against Homo sapiens (human) NCI-H460 cells assessed as cell growth at 10^-4 M after 48 hr by Alamar blue assay; conditions: NCI-H460, 48 h, read-out: Activity
[2] = read-out: LC50 (the source's name)

`ClCc1ccccc1Cn1cnc2nc(Cl)nc(Cl)c21` showed a GI50 (SK-OV-3) of 5.88 µM, an LC50 (SK-OV-3) of 56.2 µM and a TGI (SK-OV-3) of 20.9 µM. It also gave a GI50 (OVCAR-4) of 2.13 µM, an LC50 (concentration killing 50% of cells) (OVCAR-4) greater than 100 µM and a TGI (OVCAR-4) of 5.12 µM. The GI50 (UACC-62) was 1.2 µM, the LC50 (concentration causing 50% net cell kill) (UACC-62) was 6.76 µM and the TGI (UACC-62) was 2.81 µM. The GI50 (UACC-257) was 1.99 µM, the LC50 (concentration killing 50% of cells) (UACC-257) was 8.7 µM and the TGI (UACC-257) was 4.16 µM. It also gave a GI50 (LOX IMVI) of 0.16 µM, an LC50 (LOX IMVI) of 0.72 µM and a TGI (LOX IMVI) of 0.35 µM. The GI50 (SNB-75) was 1.9 µM, the TGI (SNB-75) was 4.46 µM and the CC50 (SNB-75) was greater than 100 µM. It also gave a GI50 (Hs-578T) of 0.67 µM, an LC50 (Hs-578T) greater than 100 µM and a TGI (Hs-578T) of 2.57 µM. The GI50 [1] was 2.34 µM, the LC50 (concentration killing 50% of cells) [1] was greater than 100 µM and the TGI [1] was 5.01 µM. The GI50 (MDA-MB-231) was 0.3 µM, the LC50 (MDA-MB-231) was 3.23 µM and the TGI (MDA-MB-231) was 0.91 µM. For the same compound, the GI50 (TK-10) was 19.5 µM, the TGI (TK-10) was 33.9 µM and the CC50 (TK-10) was 60.2 µM. The GI50 (RXF 393) was 0.001 µM, the TGI (RXF 393) was 1.9 µM and the CC50 (RXF 393) was 6.45 µM. For the same compound, the GI50 (SF-268) was 3.01 µM, the TGI (SF-268) was 24.5 µM and the CC50 (SF-268) was greater than 100 µM. For the same compound, the GI50 (KM12) was 11.7 µM, the TGI (KM12) was 25.7 µM and the CC50 (KM12) was 56.2 µM. The GI50 (HCT-15) was 0.19 µM, the TGI (HCT-15) was 0.43 µM and the CC50 (HCT-15) was 0.95 µM. The GI50 (HCT-116) was 1.86 µM, the TGI (HCT-116) was 4.07 µM and the GI50 (HCC 2998) was 18.6 µM. It also gave a TGI (HCC 2998) of 35.5 µM, a CC50 (HCC 2998) of 66.1 µM and a GI50 (COLO 205) of 0.35 µM. The TGI (COLO 205) was greater than 100 µM, the CC50 (COLO 205) was greater than 100 µM and the GI50 (NCI-H522) was 2.95 µM. For the same compound, the TGI (NCI-H522) was 7.24 µM, the CC50 (NCI-H522) was greater than 100 µM and the GI50 (NCI-H23) was 19.1 µM. It also gave a TGI (NCI-H23) of 40.7 µM, a CC50 (NCI-H23) of 87.1 µM and a GI50 (HOP-62) of 2.69 µM. For the same compound, the TGI (HOP-62) was 5.49 µM, the CC50 (HOP-62) was 16.6 µM and the GI50 (A549) was 2.81 µM. The TGI (A549) was 5.75 µM, the CC50 (A549) was greater than 100 µM and the GI50 (RPMI-8226) was 0.21 µM. For the same compound, the TGI (RPMI-8226) was 0.63 µM, the GI50 (MOLT-4) was 1.34 µM and the TGI (MOLT-4) was 3.23 µM. It also gave a CC50 (MOLT-4) of 7.94 µM, a GI50 (K562) of 0.25 µM and a TGI (K562) of 0.69 µM. It also gave a CC50 (K562) greater than 100 µM, a GI50 (CCRF-CEM) of 0.1 µM and a TGI (CCRF-CEM) of 0.3 µM. For the same compound, the CC50 (CCRF-CEM) was 0.93 µM, the growth at 100 µM (MCF7) was 0% and the growth at 100 µM (NCI-H460) was 0%.
`ClCc1ccccc1Cn1cnc2ncnc(Cl)c21` showed a GI50 (SK-OV-3) of 7.58 µM, an LC50 (SK-OV-3) of 85.1 µM and a TGI (SK-OV-3) of 26.9 µM. It also gave a GI50 (OVCAR-4) of 4.89 µM, an LC50 (concentration killing 50% of cells) (OVCAR-4) of 77.6 µM and a TGI (OVCAR-4) of 20.4 µM. For the same compound, the GI50 (UACC-62) was 1.86 µM, the LC50 (concentration causing 50% net cell kill) (UACC-62) was 19.1 µM and the TGI (UACC-62) was 5.12 µM. The GI50 (UACC-257) was 5.88 µM, the LC50 (concentration killing 50% of cells) (UACC-257) was 61.6 µM and the TGI (UACC-257) was 21.9 µM. The GI50 (LOX IMVI) was 1.34 µM, the LC50 (LOX IMVI) was 7.07 µM and the TGI (LOX IMVI) was 3.09 µM. The GI50 (SNB-75) was 11.2 µM, the TGI (SNB-75) was 26.9 µM and the CC50 (SNB-75) was 63.1 µM. The GI50 (Hs-578T) was 2.29 µM, the LC50 (Hs-578T) was 66.1 µM and the TGI (Hs-578T) was 6.02 µM. It also gave a GI50 [1] of 2.08 µM, an LC50 (concentration killing 50% of cells) [1] of 6.54 µM and a TGI [1] of 4.46 µM. It also gave a GI50 (MDA-MB-231) of 2.75 µM, an LC50 (MDA-MB-231) of 25.1 µM and a TGI (MDA-MB-231) of 6.91 µM. It also gave a GI50 (TK-10) of 3.46 µM, a TGI (TK-10) of 9.54 µM and a CC50 (TK-10) of 33.9 µM. The GI50 (RXF 393) was 1.65 µM, the TGI (RXF 393) was 6.54 µM and the CC50 (RXF 393) was greater than 100 µM. For the same compound, the GI50 (SF-268) was 4.78 µM, the TGI (SF-268) was 24.5 µM and the CC50 (SF-268) was greater than 100 µM. It also gave a GI50 (KM12) of 3.63 µM, a TGI (KM12) of 11.2 µM and a CC50 (KM12) of 38 µM. The GI50 (HCT-15) was 1.38 µM, the TGI (HCT-15) was 2.88 µM and the CC50 (HCT-15) was 6.16 µM. For the same compound, the GI50 (HCT-116) was 1.51 µM, the TGI (HCT-116) was 4.07 µM and the CC50 (HCT-116; [2]) was 40.7 µM. The GI50 (HCC 2998) was 2.23 µM, the TGI (HCC 2998) was 4.26 µM and the CC50 (HCC 2998) was 7.94 µM. It also gave a GI50 (COLO 205) of 4.36 µM, a TGI (COLO 205) greater than 100 µM and a CC50 (COLO 205) greater than 100 µM. The GI50 (NCI-H522) was 2.81 µM, the TGI (NCI-H522) was 75.9 µM and the CC50 (NCI-H522) was greater than 100 µM. The GI50 (NCI-H23) was 5.01 µM, the TGI (NCI-H23) was 17.4 µM and the CC50 (NCI-H23) was 49 µM. For the same compound, the GI50 (HOP-62) was 11.2 µM, the TGI (HOP-62) was 28.8 µM and the CC50 (HOP-62) was 75.9 µM. It also gave a GI50 (A549) of 4.46 µM, a TGI (A549) of 24 µM and a CC50 (A549) greater than 100 µM. For the same compound, the GI50 (RPMI-8226) was 2.08 µM, the TGI (RPMI-8226) was 5.49 µM and the CC50 (RPMI-8226; [2]) was 50.1 µM. For the same compound, the GI50 (MOLT-4) was 1.65 µM, the TGI (MOLT-4) was 4.26 µM and the CC50 (MOLT-4) was 16.6 µM. For the same compound, the GI50 (K562) was 2.23 µM, the TGI (K562) was 5.88 µM and the CC50 (K562) was 83.2 µM. For the same compound, the GI50 (CCRF-CEM) was 1.44 µM, the TGI (CCRF-CEM) was 3.54 µM and the CC50 (CCRF-CEM) was 8.7 µM. It also gave a growth at 100 µM (MCF7) of 1% and a growth at 100 µM (NCI-H460) of 0%.
